We go through 2 compounds from patent publication US5045537A, “Hydrophilic renin inhibitors, their preparation and use” (Sandoz Ltd., priority 1987, dated 1991).

One assay has as its system FeLV. Particulars: 30 mg treatment over 14 days; cited from earlier work.
In another assay the target is T1, human plasma renin (Homo sapiens, UniProt P00797).
T1 construct: human plasma renin activity; from tissue; host or cells: human plasma
T1 sequence (P00797 67-406): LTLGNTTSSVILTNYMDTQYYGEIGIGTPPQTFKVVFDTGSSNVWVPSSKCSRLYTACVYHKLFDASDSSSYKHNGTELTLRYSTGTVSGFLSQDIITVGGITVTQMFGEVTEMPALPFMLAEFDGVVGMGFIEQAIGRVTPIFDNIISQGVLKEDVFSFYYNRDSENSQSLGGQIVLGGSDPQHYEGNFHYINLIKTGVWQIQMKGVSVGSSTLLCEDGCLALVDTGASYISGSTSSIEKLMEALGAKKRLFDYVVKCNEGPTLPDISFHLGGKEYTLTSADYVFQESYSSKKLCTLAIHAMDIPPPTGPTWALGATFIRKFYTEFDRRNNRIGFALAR
The assay is described as follows: Antibody-trapping method of Poulsen and Jorgensen, human plasma renin activity. The class given is biochemical. To be noted: antibody trapping test. The text has this: In the antibody-trapping method of K. Poulsen and J. Jorgensen (J. Clin. Endocrin. Metab. 39, [1974] 816-825), they inhibit human plasma renin activity at a concentration of 10^-5 M to 10^-11 M.

Turning to `Cc1cn([C@H]2C[C@H](N=[N+]=[N-])[C@@H](CO)O2)c(=O)[nH]c1=O` [3'-azido-3'-deoxy-thymidine], in the assay with FeLV, the cure entry is reported as “no cure was achieved” and the “reduction of FeLV-titres by a factor” value is reported as 10.
What is called IC50 is the concentration that gives 50% inhibition. Turning to `CCCC[C@H](NC(=O)[C@H](Cc1cccs1)NC(=O)COCCOCCOCCOC)C(=O)N[C@@H](CC1CCCCC1)[C@@H](O)CC(=O)N[C@@H](CC(C)C)C(=O)NCc1ccccn1` [Example 46, 3EG-Thala-Nle-Chatin-Leu-α-Pic], on human plasma renin, it took 1.5 nM to reach half-maximal inhibition (IC50), the highest inhibiting concentration was 15 nM/l and the lowest inhibiting concentration is given as 0,15 nM/l.
